Measurements from patent publication US20160115540A1, “PRODRUGS AND DRUGS” (Biogen MA Inc., priority 2013, published 2016).
Structures can show the parent of a compound that is named as a salt.

Tested on: jejunum
Assay: Transcriptional profiling on Affymetrix GeneChips, single dose, naïve mice: jejunum
Format: in vivo, C57BL/6 mice
Settings: jejunum, 100DMF-vs-Veh
Method: Treated mice were sacrificed at 2, 7, or 12 hours. Tissues (liver, spleen, kidney, jejunum, cortex, hippocampus, striatum and whole blood) were collected and analyzed by transcriptional profiling on mouse Affymetrix GeneChips.
Tissues (liver, spleen, kidney, jejunum, cortex, hippocampus, striatum and whole blood) were collected and analyzed by transcriptional profiling on mouse Affymetrix GeneChips.
Animals were exposed to CO2 and whole blood collected via cardiac puncture. Two 100 μl aliquots of whole blood were collected in 1.5 mL microcentrifuge tubes and snap frozen in liquid nitrogen. Peripheral (liver, spleen, kidney and jejunum) and CNS brain (cerebellum, hippocampus, striatum and cortex) tissues were harvested and snap frozen in liquid nitrogen, with special care taken to collect tissues of similar size and from the same location. All samples were stored at −80° C. until RNA extraction was conducted.
For RNA preparation, frozen tissues were placed in 2 mL RNAse-free 96-well blocks with 1.5 mL QIAzol Lysis Reagent (QIAgen) and a 3.2 mm stainless steel bead (BioSpec Products, Bartlesville, Okla.). Tissues were disrupted for four cycles of 45 seconds in a Mini-Beadbeater (Biospec Products). RNA was extracted in chloroform and the aqueous phase was mixed with an equal volume of 70% ethanol. Extracted RNA was applied to RNeasy 96 plates and purified by the spin method according to the manufacturer's protocol (RNeasy 96 Universal Tissue Protocol, QIAgen, Hilden Germany).
Automated sample amplifications and biotin labelings were carried out using the NuGEN Ovation RNA Amplification system V2 (Cat #3100), Ovation WB reagent (Cat #1300) and Encore Biotin module (Cat #4200) (NuGEN Technologies, Inc, San Carlos, Calif.) according to manufacturer's recommendations using an Arrayplex automated liquid handler (Beckman Coulter, Indianapolis, Ind.). Two micrograms of biotin labeled sscDNA probe were hybridized to Affymetrix GeneChip Affymetrix HT_MG-430_PM plate arrays with modified conditions as described in Allaire et al. Washing and staining of the hybridized arrays were completed as described in the GeneChip Expression analysis technical manual for HT plate arrays using the Genechip® Array Station (Affymetrix, Santa Clara, Calif.) with modifications as described in Allaire et al. The processed GeneChip® plate arrays were scanned using GeneTitan scanner (Affymetrix, Santa Clara, Calif.).
Affymetrix scans were subject to quality control (QC) measures. These tests included a visual inspection of the distribution of raw signal intensities and an assessment of RNA degradation, relative log expression (RLE), and normalized unsealed standard error (NUSE). All sample scans that passed these QC metrics were included in the analysis.
All CEL files were subjected to GC-content-based Robust Multi-array Average (GCRMA) normalization (version 2.20.0) (Irizarry R A, et al. Nucleic Acids Res 2003; 31:e15; Li C, et al. Genome Biol 2001; 2:[…]0032). Expression levels were log (base 2) transformed.
All calculations and analyses were carried out using R (version 2.11.1) and Bioconductor computational tools (Gentleman R. Springer Science+Business Media 2005).

## COC(=O)/C=C/C(=O)OC [DMF, dimethyl fumarate]
2 h
  FC Tox3 (1436600_PM_at): 1.70
  FC Tsku (1440230_PM_at): 1.61
  FC Ugt2b5 (1419622_PM_at): 3.40
  FC Ugt2b35 (1439624_PM_at): 3.22
  FC Ugt2b36 (1455595_PM_at): 2.07
  FC Unc5cl (1429950_PM_at): −1.53
  FC probe 1441046_PM_at: 1.54
  FC probe 1443118_PM_at: 1.91
  FC probe 1444265_PM_at: 1.75
  FC probe 1445980_PM_at: 2.92
  FC probe 1446045_PM_at: 1.52
  FC probe 1447411_PM_at: 2.88
  FC probe 1459091_PM_at: 1.98
7 h
  FC 9430069I07Rik (1431672_PM_at): 2.76
  FC Abcc3 (1428988_PM_at): 1.88
  FC Acsm5 (1437662_PM_at): 1.60
  FC Acss2 (1446542_PM_at): 1.71
  FC Akr1b8 (1448894_PM_at): 8.53
  FC Akr1c13 (1418672_PM_at): 1.61
  FC Akr1c19 (1455454_PM_at): 2.07
  FC Cbr1 (1460196_PM_at): 1.65
  FC Cbr3 (1427912_PM_at): 22.39
  FC Ces1e (1419510_PM_at): 2.10
  FC Ces1f (1424266_PM_s_at): 3.58
  FC Ces1g (1449486_PM_at): 4.67
  FC Ddc (1426215_PM_at): 1.74
  FC G6pd2 (1422327_PM_s_at): 1.82
  FC G6pdx (1448354_PM_at): 1.54
  FC Gclc (1424296_PM_at): 2.06
  FC Gclc (1455959_PM_s_at): 1.88
  FC Gsr (1421816_PM_at): 2.83
  FC Gss (1441931_PM_x_at): 1.89
  FC Gss (1448273_PM_at): 1.97
  FC Gsta2 (1421040_PM_a_at): 5.81
  FC Gsta2 (1421041_PM_s_at): 1.72
  FC Gsta3 (1423436_PM_at): 4.27
  FC Gsta3 (1423437_PM_at): 3.89
  FC Gstm1 (1416416_PM_x_at): 3.19
  FC Gstm1 (1425627_PM_x_at): 3.45
  FC Gstm1 (1448330_PM_at): 3.40
  FC Gstm2 (1416411_PM_at): 1.58
  FC Gstm3 (1427473_PM_at): 2.82
  FC Gstm3 (1427474_PM_s_at): 1.79
  FC Gstm4 (1424835_PM_at): 3.83
  FC Gstm6 (1422072_PM_a_at): 1.94
  FC Htatip2 (1451814_PM_a_at): 1.51
  FC Nqo1 (1423627_PM_at): 2.31
  FC Pir (1429001_PM_at): 3.79
  FC Setd4 (1425239_PM_at): 1.90
  FC Setd4 (1435405_PM_at): 1.50
  FC Setd4 (1460373_PM_a_at): 1.50
  FC Slc5a4b (1422757_PM_at): 1.67
  FC Txnrd1 (1424487_PM_x_at): 1.60
  FC Ugt2b5 (1419622_PM_at): 3.42
  FC Ugt2b35 (1439624_PM_at): 2.66
  FC Ugt2b36 (1455595_PM_at): 2.23
12 h
  FC Aldh1a7 (1418601_PM_at): 1.65
  FC Gstm1 (1416416_PM_x_at): 3.56
  FC Gstm2 (1416411_PM_at): 2.04
